Laboratory results as given in PubChem BioAssay (NCI).
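Growth conditions: 96-well plates. Treatment: test compound, 48 hours, 5 concentrations. Analysis: linear interpolation between bracketing concentrations; unreached endpoints set to highest concentration. Definition used: TGI = concentration required for complete inhibition of growth.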

Tests used:
Assay in all cases: NCI-60 cell line screen, 48 h
[1] = test system: SR leukemia
[2] = test system: RPMI-8226 leukemia
[3] = test system: SNB-75 CNS
[4] = test system: MCF7 breast
[5] = test system: U251 CNS
[6] = test system: CAKI-1 renal
[7] = test system: UACC-62 melanoma
[8] = test system: SN12C renal
[9] = test system: SF-295 CNS
[10] = test system: HL-60(TB) leukemia
[11] = test system: EKVX NSCLC
[12] = test system: COLO 205 colon
[13] = test system: BT-549 breast
[14] = test system: OVCAR-3 ovarian
[15] = test system: SW-620 colon
[16] = test system: NCI-H23 lung
[17] = test system: SK-MEL-5 melanoma
[18] = test system: IGROV1 ovarian
[19] = test system: PC-3 prostate
[20] = test system: OVCAR-8 ovarian
[21] = test system: SNB-19 CNS
[22] = test system: T-47D breast
[23] = test system: DU-145 prostate
[24] = test system: HOP-92 NSCLC
[25] = test system: MOLT-4 leukemia
[26] = test system: SK-MEL-2 melanoma
[27] = test system: NCI-H522 lung
[28] = test system: KM12 colon
[29] = test system: HCC-2998 colon
[30] = test system: UACC-257 melanoma
[31] = test system: SK-MEL-28 melanoma
[32] = test system: OVCAR-5 ovarian
[33] = test system: HCT-15 colon
[34] = test system: HT29 colon
[35] = test system: MDA-MB-231 breast
[36] = test system: OVCAR-4 ovarian
[37] = test system: 786-0 renal
[38] = test system: K-562 leukemia
[39] = test system: HOP-62 NSCLC
[40] = test system: UO-31 renal
[41] = test system: HS 578T breast
[42] = test system: MALME-3M melanoma
[43] = test system: MDA-N
[44] = test system: MDA-MB-435
[45] = test system: CCRF-CEM leukemia
[46] = test system: LOX IMVI melanoma
[47] = test system: SF-268 CNS
[48] = test system: ACHN renal
[49] = test system: HCT-116 colon
[50] = test system: A549 NSCLC
[51] = test system: TK-10 renal
[52] = test system: M14 melanoma
[53] = test system: NCI-H226 lung
[54] = test system: SF-539 CNS
[55] = test system: SK-OV-3 ovarian
[56] = test system: RXF 393 renal
[57] = test system: NCI/ADR-RES ovarian
[58] = test system: A498 renal
[59] = test system: NCI-H460 lung

Measured: TGI

Cc1cc2ncn(C3CCCO3)c2cc1C (centres undefined)
not listed: [58] | [59]
> 100 µM: all other assays above

Cn1c(O)c(C2=Nc3ccccc3C2=O)c2ccccc21
not listed: [10] | [54]
> 100 µM: all other assays above
